Measured values from patent publication US10301280B2 (Plexxikon Inc., priority 2012, dated 2019).

Target: c-kit kinase (Homo sapiens (Human), UniProt P10721)
Test: c-Kit biochemical assay (AlphaScreen)
Conditions: c-kit biochemical inhibitory activity
How it was run: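 AlphaScreen of biotin-(E4Y)3 (100 nM) phosphorylation by c-kit (0.1 ng) in HEPES pH 7.2, Mg/Mn, 10 μM ATP, 5% DMSO, 1 h at room temperature; variant uses 100 μM ATP, 30 nM biotin-(E4Y)10, 1 ng enzyme. PY20 acceptor/streptavidin donor signal versus 8-point concentration gives IC50.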

Sequence of c-kit kinase (P10721 26-976): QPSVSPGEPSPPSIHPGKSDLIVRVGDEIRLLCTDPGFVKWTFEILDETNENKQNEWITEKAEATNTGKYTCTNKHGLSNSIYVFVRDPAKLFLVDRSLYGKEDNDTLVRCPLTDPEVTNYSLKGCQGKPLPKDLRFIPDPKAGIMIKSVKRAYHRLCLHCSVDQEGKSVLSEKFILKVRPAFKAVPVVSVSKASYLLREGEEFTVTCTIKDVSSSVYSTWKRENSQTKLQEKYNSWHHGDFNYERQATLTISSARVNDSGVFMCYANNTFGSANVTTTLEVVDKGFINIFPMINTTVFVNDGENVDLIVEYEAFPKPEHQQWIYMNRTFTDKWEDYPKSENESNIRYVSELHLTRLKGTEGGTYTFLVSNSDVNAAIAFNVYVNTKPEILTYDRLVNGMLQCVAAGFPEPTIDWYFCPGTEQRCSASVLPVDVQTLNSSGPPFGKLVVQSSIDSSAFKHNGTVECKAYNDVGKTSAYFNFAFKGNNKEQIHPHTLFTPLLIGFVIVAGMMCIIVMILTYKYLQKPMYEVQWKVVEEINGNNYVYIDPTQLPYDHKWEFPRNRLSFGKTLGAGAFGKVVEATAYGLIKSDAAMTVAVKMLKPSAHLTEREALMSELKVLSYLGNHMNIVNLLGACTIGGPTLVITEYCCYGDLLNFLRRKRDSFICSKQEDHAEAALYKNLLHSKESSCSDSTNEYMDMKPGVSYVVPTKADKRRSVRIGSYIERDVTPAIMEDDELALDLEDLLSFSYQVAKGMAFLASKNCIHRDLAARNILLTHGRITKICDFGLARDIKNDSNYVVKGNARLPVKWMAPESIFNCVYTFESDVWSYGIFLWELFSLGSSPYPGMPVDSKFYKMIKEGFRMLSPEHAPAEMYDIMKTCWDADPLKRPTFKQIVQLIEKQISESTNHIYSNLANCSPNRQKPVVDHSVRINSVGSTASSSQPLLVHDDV

| SMILES | IC50 [µM] |
| --- | --- |
| Cc1n[nH]c(C(=O)Nc2cnc(Nc3cccc(NS(=O)(=O)c4ccccc4)c3)nc2)c1C [P-2053, N-[2-[3-(benzenesulfonamido)anilino]pyrimidin-5-yl]-3,4-dimethyl-1H-pyrazole-5-carboxamide] | 1 to 10 |
| Cc1cc(C(=O)Nc2cnc3[nH]c(C4=CCN(C(=O)N5CCOCC5)CC4)cc3c2)n[nH]1 [P-2031, 5-methyl-N-[2-[1-(morpholine-4-carbonyl)-3,6-dihydro-2H-pyridin-4-yl]-1H-pyrrolo[2,3-b]pyridin-5-yl]-1H-pyrazole-3-carboxamide] | 0.0001 to 1 |
| Cc1nn(C2CN(C(=O)OC(C)(C)C)C2)cc1-c1cc2cc(NC(=O)c3[nH]nc(C)c3C)cnc2[nH]1 [P-2285, tert-butyl 3-[4-[5-[(3,4-dimethyl-1H-pyrazole-5-carbonyl)amino]-1H-pyrrolo[2,3-b]pyridin-2-yl]-3-methyl-pyrazol-1-yl]azetidine-1-carboxylate] | 0.0001 to 1 |
| CCOC(=O)Nc1cccc(Nc2ncc(NC(=O)c3[nH]nc(C)c3C)cn2)c1 [P-2055, ethyl N-[3-[[5-[(3,4-dimethyl-1H-pyrazole-5-carbonyl)amino]pyrimidin-2-yl]amino]phenyl]carbamate] | 1 to 10 |
| O=C(Nc1cnc2[nH]c(-c3ccc(F)cc3)cc2c1)c1n[nH]c2ccccc12 [P-2046, N-[2-(4-fluorophenyl)-1H-pyrrolo[2,3-b]pyridin-5-yl]-1H-indazole-3-carboxamide] | 10 to 200 |
| Cc1n[nH]c(C(=O)Nc2cnc3[nH]c(-c4ccc(F)c(-c5nn[nH]n5)c4)cc3c2)c1C [P-2174, N-[2-[4-fluoro-3-(2H-tetrazol-5-yl)phenyl]-1H-pyrrolo[2,3-b]pyridin-5-yl]-3,4-dimethyl-1H-pyrazole-5-carboxamide] | 1 to 10 |
| Cc1n[nH]c(C(=O)Nc2cnc3[nH]c(C4=CCOCC4)cc3c2)c1C [P-2271, N-[2-(3,6-dihydro-2H-pyran-4-yl)-1H-pyrrolo[2,3-b]pyridin-5-yl]-3,4-dimethyl-1H-pyrazole-5-carboxamide] | 0.0001 to 1 |
| CCc1ccc(-c2cc3cc(NC(=O)c4[nH]nc(C)c4C)cnc3[nH]2)cn1 [P-2178, N-[2-(6-ethyl-3-pyridyl)-1H-pyrrolo[2,3-b]pyridin-5-yl]-3,4-dimethyl-1H-pyrazole-5-carboxamide] | 10 to 200 |
| Cc1n[nH]c(C(=O)Nc2cnc3[nH]c(-c4cnc(N5CCN(C)CC5)nc4)cc3c2)c1C [P-2160, 3,4-dimethyl-N-[2-[2-(4-methylpiperazin-1-yl)pyrimidin-5-yl]-1H-pyrrolo[2,3-b]pyridin-5-yl]-1H-pyrazole-5-carboxamide] | 1 to 10 |
| Cc1n[nH]c(C(=O)Nc2cnc3[nH]c(-c4c(C)n[nH]c4C)cc3c2)c1C [P-2167, N-[2-(3,5-dimethyl-1H-pyrazol-4-yl)-1H-pyrrolo[2,3-b]pyridin-5-yl]-3,4-dimethyl-1H-pyrazole-5-carboxamide] | 0.0001 to 1 |
| COc1cncc(-c2cc3cc(NC(=O)c4[nH]nc(C)c4C)cnc3[nH]2)c1 [P-2183, N-[2-(5-methoxy-3-pyridyl)-1H-pyrrolo[2,3-b]pyridin-5-yl]-3,4-dimethyl-1H-pyrazole-5-carboxamide] | 10 to 200 |
